In US20240100013A1, “SOTAGLIFLOZIN FOR IMPROVING LEFT ATRIAL FUNCTION” (CHARITÉ-UNIVERSITÄTSMEDIZIN BERLIN, priority 2021, published 2024):

Key:
HFpEF (ZSF-1 obese) rats = experiment: Echocardiography of LA size in the ZSF-1 obese rat model of HFpEF after chronic treatment; assay type: in vivo; conditions: 30 mg/kg/day oral feeding, seven weeks, vs vehicle
Text: Animal experiments were approved by local authorities. The ZSF-1 obese rat model is based on a leptin receptor mutation resulting in severe metabolic dysfunction. See Bilan V P, Salah E M, Bastacky S, Jones H B, Mayers R M, Zinker B, Poucher S M, Tofovic S P: “Diabetic nephropathy and long-term treatment effects of rosiglitazone and enalapril in obese ZSF1 rats,” J Endocrinol 2011, 210(3):293-308. The model has repeatedly been reported to show distinct features of HFpEF, such as an increased left ventricular (LV) end diastolic pressure, LV hypertrophy, diastolic dysfunction, lung congestion and LA remodeling, while maintaining a preserved ejection fraction (EF).
Echocardiography. Echocardiography was performed and analyzed as previously described (See Hohendanner F, Bode D, Primessnig U, Guthof T, Doerr R, Jeuthe S, Reimers S, Zhang K, Bach D, Wakula P et al: “Cellular mechanisms of metabolic syndrome-related atrial decompensation in a rat model of HFpEF” J Mol Cell Cardiol 2018, 115:10-19) by an experienced observer (N.H.) blinded to the treatment group immediately prior to sacrifice using a vevo lab ultrasound system to assess LA size and LV fractional shortening in vivo. 1-lead electrocardiograms were obtained during echocardiography and the presence or absence of atrial rhythm disorders i.e., atrial fibrillation was documented.

LA cardiomyocytes [1] = experiment: Spontaneous SR Ca2+ release events (SCaEs) of isolated LA cardiomyocytes; assay type: cell-based, rat; conditions: HFpEF LA cardiomyocytes after chronic treatment
Text: (§1) Cardiomyocyte isolation. LA and LV cardiomyocytes were isolated using enzymatic digestion as previously described in detail. See Bode D, Guthof T, Pieske B M, Heinzel F R, Hohendanner F: “Isolation of Atrial Cardiomyocytes from a Rat Model of Metabolic Syndrome-related Heart Failure with Preserved Ejection Fraction,” J Vis Exp 2018(137).
Solutions and chemicals. Chemicals were obtained from Sigma-Aldrich (St. Louis, MO, USA) unless noted otherwise. The dual SGLT1/2 inhibitor sotagliflozin was provided by Lexicon Pharmaceuticals (The Woodlands, TX, USA). Fluorescent dyes Fura-2 AM, Rhod-2 AM, MitoTracker red, MitoTracker green, TMRE and H2-DCF were obtained from Thermo Fisher Scientific (Waltham, MA, USA). Tyrode solution contained (in mM): 130 NaCL, 4 KCl, 2 CaCl, 1 MgCl2, 10 Glucose, 10 HEPES; pH adjusted to 7.4 with NaOH. LA cardiomyocytes were plated on laminin-coated glass coverslips. 20 mM caffeine was added to Tyrode solution to induce sarcoplasmic reticulum (SR) Ca^2+ release and obtain a measure of SR Ca^2+ content. […]
Ca^2+ measurements and sarcomere shortening. Radiometric Ca^2+ measurements (excitation: 340 nm and 385 nm, emission: 510±10 nm; [Ca^2+] expressed as the ratio R=F340/F380) were performed either with a CytoCypher MultiCell System (CytoCypher BV, Netherlands; FIGS. 1C-F, 2D-G, 4A-F) or an Axiovert 200 microscope (Zeiss, Oberkochen, Germany) fluorescence imaging assembly (FIGS. 2A-C, 2H-J, 3A-E, 6E-I). […] Experiments were conducted at 37° C. and CaT were recorded at steady state (following electric stimulation).
CaT and sarcomere shortening of LA and LV cardiomyocytes were recorded for 10 s at 3 Hz stimulation. See FIGS. 2D-G, 4A-F. Electric stimulation was turned off and spontaneous SR Ca^2+ release events (See Voigt N, Heijman J, Wang Q, Chiang D Y, Li N, Karck M, Wehrens X H T, Nattel S, Dobrev D: “Cellular and molecular mechanisms of atrial arrhythmogenesis in patients with paroxysmal atrial fibrillation,” Circulation 2014, 129(2):145-156) (SCaEs) immediately recorded for a duration of 10 s (FIG. 1C-F). […]

LA cardiomyocytes [2] = experiment: Ca2+ transient (CaT) measurements (Fura-2) in LA cardiomyocytes, incl. glucose starvation/reintroduction and glycolytic inhibition; assay type: cell-based, rat
Text: as §1
Solutions and chemicals. Chemicals were obtained from Sigma-Aldrich (St. Louis, MO, USA) unless noted otherwise. The dual SGLT1/2 inhibitor sotagliflozin was provided by Lexicon Pharmaceuticals (The Woodlands, TX, USA). Fluorescent dyes Fura-2 AM, Rhod-2 AM, MitoTracker red, MitoTracker green, TMRE and H2-DCF were obtained from Thermo Fisher Scientific (Waltham, MA, USA). Tyrode solution contained (in mM): 130 NaCL, 4 KCl, 2 CaCl, 1 MgCl2, 10 Glucose, 10 HEPES; pH adjusted to 7.4 with NaOH. LA cardiomyocytes were plated on laminin-coated glass coverslips. 20 mM caffeine was added to Tyrode solution to induce sarcoplasmic reticulum (SR) Ca^2+ release and obtain a measure of SR Ca^2+ content. […] For glucose starvation (FIGS. 2H-J, 5A-D), glucose of Tyrode solution was replaced with 30 mM mannitol. For sub-sequent glucose reintroduction, mannitol was replaced with 30 mM glucose (“high glucose condition”).
(§2) Ca^2+ measurements and sarcomere shortening. Radiometric Ca^2+ measurements (excitation: 340 nm and 385 nm, emission: 510±10 nm; [Ca^2+] expressed as the ratio R=F340/F380) were performed either with a CytoCypher MultiCell System (CytoCypher BV, Netherlands; FIGS. 1C-F, 2D-G, 4A-F) or an Axiovert 200 microscope (Zeiss, Oberkochen, Germany) fluorescence imaging assembly (FIGS. 2A-C, 2H-J, 3A-E, 6E-I). LA cardiomyocytes were loaded with Fura-2 for 30 min at room temperature, washed twice with Tyrode solution and transferred to the microscope. Experiments were conducted at 37° C. and CaT were recorded at steady state (following electric stimulation).
(§3) CaT and sarcomere shortening of LA and LV cardiomyocytes were recorded for 10 s at 3 Hz stimulation. See FIGS. 2D-G, 4A-F. Electric stimulation was turned off and spontaneous SR Ca^2+ release events (See Voigt N, Heijman J, Wang Q, Chiang D Y, Li N, Karck M, Wehrens X H T, Nattel S, Dobrev D: “Cellular and molecular mechanisms of atrial arrhythmogenesis in patients with paroxysmal atrial fibrillation,” Circulation 2014, 129(2):145-156) (SCaEs) immediately recorded for a duration of 10 s (FIG. 1C-F). In a sub-set of LA cells, CaT were recorded for 10 s at 1 Hz stimulation. Electric stimulation was turned off, the cells immediately exposed to 20 mM caffeine and the sub-sequent caffeine-induced CaT recorded for 10 s (FIG. 2A-C, 3A-E). Sodium-calcium exchanger (NCX) activity was calculated as previously described. See Hohendanner F, Walther S, Maxwell J T, Kettlewell S, Awad S, Smith G L, Lonchyna V A, Blatter L A: “Inositol-1,4,5-trisphosphate induced Ca^2+ release and excitation-contraction coupling in atrial myocytes from normal and failing hearts,” J Physiol 2015, 593(6):1459-1477.
Cells were treated with 2-deoxyglucose to inhibit glycolysis for a duration of 3 min, while maintaining steady stimulation at 1 Hz and CaT were recorded for another 10 s. A sub-set of cells was starved of glucose for 1 h at 37° C. CaT were recorded for 10 s at 1 Hz stimulation. See FIGS. 2H-J. Cells were exposed to glucose and constant electric pacing at 1 Hz was maintained. After 1 min, CaT transients were recorded for 10 s at 1 Hz stimulation.

LA cardiomyocytes [3] = experiment: Caffeine-induced CaT: SR Ca2+ load, tau of decay and NCX forward-mode activity; assay type: cell-based, rat
Text: Solutions and chemicals. Chemicals were obtained from Sigma-Aldrich (St. Louis, MO, USA) unless noted otherwise. The dual SGLT1/2 inhibitor sotagliflozin was provided by Lexicon Pharmaceuticals (The Woodlands, TX, USA). Fluorescent dyes Fura-2 AM, Rhod-2 AM, MitoTracker red, MitoTracker green, TMRE and H2-DCF were obtained from Thermo Fisher Scientific (Waltham, MA, USA). Tyrode solution contained (in mM): 130 NaCL, 4 KCl, 2 CaCl, 1 MgCl2, 10 Glucose, 10 HEPES; pH adjusted to 7.4 with NaOH. LA cardiomyocytes were plated on laminin-coated glass coverslips. 20 mM caffeine was added to Tyrode solution to induce sarcoplasmic reticulum (SR) Ca^2+ release and obtain a measure of SR Ca^2+ content. For baseline recordings of Ca^2+ transient (CaT), sarcomere shortening and arrhythmic events (FIGS. 1C-F, 2A-E, 3A-F), Tyrode solution containing 3 mM Ca^2+ was used. For glucose starvation (FIGS. 2H-J, 5A-D), glucose of Tyrode solution was replaced with 30 mM mannitol. For sub-sequent glucose reintroduction, mannitol was replaced with 30 mM glucose (“high glucose condition”).
as §2, §3

[4] = HFpEF, 2-deoxyglucose, 3 min, 1 Hz
[5] = HFpEF, 3 Hz, 5 mM extracellular [Ca2+]
[6] = baseline, 1 Hz, 2 mM Ca2+, chronic treatment

`CCOc1ccc(Cc2cc([C@@H]3O[C@H](SC)[C@@H](O)[C@H](O)[C@H]3O)ccc2Cl)cc1` [sotagliflozin, (2S,3R,4R,5S,6R)-2-(4-chloro-3-(4-ethoxybenzyl)phenyl)-6-(methylthio)tetrahydro-2H-pyran-3,4,5-triol] was tested, and the “LA enlargement (LA volume in vivo)” value (HFpEF (ZSF-1 obese) rats) was “mitigates LA enlargement”, the “amplitude of SCaEs” value (LA cardiomyocytes [1]) was “significantly reduced” and the SCaE event frequency (LA cardiomyocytes [1]; non-stimulated interval after 3 Hz) was “remained unaltered”. For the same compound, the “increased CaT amplitude gain upon glycolytic inhibition” value (LA cardiomyocytes [2]; [4]) was “prevented”, the “increased influx of diastolic Ca2+ upon glycolytic inhibition” value (LA cardiomyocytes [2]; [4]) was “prevented” and the CaT amplitudes (LA cardiomyocytes [2]; [5]) was “unchanged”. For the same compound, the “diastolic [Ca2+]” value (LA cardiomyocytes [2]; [5]) was “significant reduction”, the “glucose-mediated influx of diastolic Ca2+” value (LA cardiomyocytes [2]; HFpEF, 1 h glucose starvation, then 30 mM glucose) was “prevented” and the CaT amplitude (LA cardiomyocytes [2]; [6]) was “did not alter”. For the same compound, the “diastolic [Ca2+]” value (LA cardiomyocytes [2]; [6]) was “did not alter”, the “SR Ca2+ load” value (LA cardiomyocytes [3]; HFpEF, 20 mM caffeine) was “no effect” and the “tau of caffeine-induced CaT” value (LA cardiomyocytes [3]; HFpEF, 20 mM caffeine) was “unchanged”. The “tau of decay (paced CaT)” value (LA cardiomyocytes [3]; HFpEF, 1 Hz electric stimulation) was “significantly prolonged”, the “increase of contribution of NCX forward-mode activity on cytosolic Ca2+ removal” value (LA cardiomyocytes [3]; HFpEF, Sota vs vehicle) was −50% and the “contribution of NCX forward-mode activity on cytosolic Ca2+ removal” value (LA cardiomyocytes [3]; HFpEF, vehicle 7.6±0.7, n=14 and 21 cells) was 11.6±0.7%. The “increased forward mode NCX activity” value (LA cardiomyocytes [3]; after chronic treatment, HFpEF vs WT) was “only occurs in HFpEF, but not WT”.
